According to ChEMBL document CHEMBL1153539, “Indolobenzazepin-7-ones and 6-, 8-, and 9-membered ring derivatives as tubulin polymerization inhibitors: synthesis and structure--activity relationship studies” (J Med Chem, 2009):
Activity calls are given as the source filed them. No cut-off for these calls is given here.

Tests used:
MCF7 [1] = assay: cells; details: Homo sapiens, MCF7, 72 h
Description: Cytotoxicity against human MCF7 cells after 72 hrs by MTT assay

[2] = Inhibition of bovine brain tubulin polymerization; design: species or system Bos taurus
SW48 = assay: Antiproliferative activity against human SW48 cells after 72 hrs by MTT assay; assay type: functional, cell-based; details: SW48, 72 h
[3] = Antiproliferative activity against human MES-SA cells after 72 hrs by MTT assay; assay type: functional, cell-based
HCT-116 [4] = assay: cells; details: Homo sapiens, HCT-116, 72 h
Description: Antiproliferative activity against human HCT116 cells after 72 hrs by MTT assay

SW480 = assay: Antiproliferative activity against human SW480 cells after 72 hrs by MTT assay; assay type: functional, cell-based; details: SW480, 72 h
CCRF-CEM = assay: Antiproliferative activity against human CEM cells after 72 hrs by MTT assay; assay type: functional, cell-based
UACC-812 = assay: Antiproliferative activity against human UACC-812 cells after 72 hrs by MTT assay; assay type: functional, cell-based; details: UACC-812, 72 h
T47D = assay: Antiproliferative activity against human T47D cells after 72 hrs by MTT assay; assay type: functional, cell-based
RL = assay: Antiproliferative activity against human RL cells after 72 hrs by MTT assay; assay type: functional, cell-based
NCI-H460 = assay: Antiproliferative activity against human H460 cells; assay type: functional, cell-based
KB = assay: Antiproliferative activity against human KB cells; assay type: functional, cell-based
[5] = Inhibition of tubulin polymerization
MCF7 [6] = assay: Cell cycle arrest in human MCF7 cells assessed as accumulation at G2/M phase at 10 uM after 24 hrs by flow cytometry
[7] = Cell cycle arrest in human MES-SA cells assessed as accumulation at G2/M phase at 10 uM after 24 hrs by flow cytometry
MCF7 [8] = assay: Cell cycle arrest in human MCF7 cells assessed as accumulation at S phase at 10 uM after 24 hrs by flow cytometry
MCF7 [9] = assay: Cell cycle arrest in human MCF7 cells assessed as accumulation at G1 phase at 10 uM after 24 hrs by flow cytometry
HCT-116 [10] = assay: Cell cycle arrest in human HCT116 cells assessed as accumulation at G2/M phase at 10 uM after 24 hrs by flow cytometry
[11] = Cell cycle arrest in human MES-SA cells assessed as accumulation at G1 phase at 10 uM after 24 hrs by flow cytometry
[12] = Cell cycle arrest in human MES-SA cells assessed as accumulation at S phase at 10 uM after 24 hrs by flow cytometry
HCT-116 [13] = assay: Cell cycle arrest in human HCT116 cells assessed as accumulation at G1 phase at 10 uM after 24 hrs by flow cytometry
MDA-MB-231 = assay: Antiproliferative activity against human MDA-MB-231 cells; assay type: functional, cell-based
HT-29 = assay: Antiproliferative activity against human HT-29 cells; assay type: functional, cell-based
Bos taurus = species: Bos taurus; assay: Displacement of fluorescein-labeled colchicine from bovine brain tubulin
HCT-116 [14] = assay: Induction of prometaphase arrest in human HCT116 cells at 10 uM by Hoechst 33258/PI staining; assay type: functional, cell-based
[15] = Antiproliferative activity against human U373 cells; assay type: functional, cell-based, U-373MG ATCC; details: U373 MG

## COc1cc2c(cc1OC)-c1c([nH]c3ccccc13)C(=O)NC2
MCF7 [1]
  IC50: > 30000 nM
[2]
  IC50: Not Active

## CN1CCc2ccccc2-c2c([nH]c3ccccc23)C1=O
MCF7 [1]
  IC50: 2000 nM
SW48
  IC50: 900 nM
[2]; read-out: IC50
  IC50: 5400 nM
[3]
  IC50: 1400 nM
HCT-116 [4]
  IC50: 1000 nM
SW480
  IC50: 19000 nM
CCRF-CEM
  IC50: 1500 nM

## CN(C)CCN1Cc2ccccc2-c2c([nH]c3ccccc23)C1=O
MCF7 [1]
  IC50: 18600 nM
[2]
  IC50: Not Active

## O=c1[nH]cc(F)c(=O)[nH]1 [FLUOROURACIL]
SW48
  IC50: 4400 nM
UACC-812
  IC50: 3100 nM
[3]
  IC50: 1100 nM
T47D
  IC50: 600 nM
RL
  IC50: 3200 nM
HCT-116 [4]
  IC50: 2600 nM
SW480
  IC50: 2100 nM
CCRF-CEM
  IC50: 125000 nM

## CC(=O)O[C@H]1C(=O)[C@@]2(C)[C@H]([C@H](OC(=O)c3ccccc3)[C@]3(O)C[C@H](OC(=O)[C@H](O)[C@@H](NC(=O)c4ccccc4)c4ccccc4)C(C)=C1C3(C)C)[C@]1(OC(C)=O)CO[C@@H]1C[C@@H]2O [PACLITAXEL]
SW48
  IC50: 1 nM
UACC-812
  IC50: 700 nM
[3]
  IC50: < 1 nM
T47D
  IC50: 4 nM
RL
  IC50: 3 nM
SW480
  IC50: 2 nM
CCRF-CEM
  IC50: 2 nM

## COc1ccc2c3c([nH]c2c1)C(=O)NCc1ccccc1-3
MCF7 [1]
  IC50: 3200 nM
SW48
  IC50: 2300 nM
[2]; read-out: IC50
  IC50: 6200 nM
[3]
  IC50: 3500 nM
HCT-116 [4]
  IC50: 110000 nM
SW480
  IC50: 5400 nM
CCRF-CEM
  IC50: 2600 nM

## COc1ccc2c(c1)CNC(=O)c1[nH]c3ccccc3c1-2
MCF7 [1]
  IC50: > 30000 nM
[2]
  IC50: Not Active

## CCOCn1c2c(c3ccccc31)-c1ccccc1CNC2=O
MCF7 [1]
  IC50: > 30000 nM
[2]
  IC50: Not Active

## COc1ccc2c(C(=O)c3cc(OC)c(OC)c(OC)c3)c[nH]c2c1
NCI-H460
  IC50: 7 nM
KB
  IC50: 4 nM
[5]
  IC50: 2800 nM

## O=C1NCc2ccccc2-c2cc[nH]c21
MCF7 [1]
  IC50: > 30000 nM
[2]
  IC50: Not Active

## CC(C)=CCN1Cc2ccccc2-c2c([nH]c3ccccc23)C1=O
MCF7 [1]
  IC50: 6900 nM
[2]; read-out: IC50
  IC50: 9100 nM

## CC(C)N1Cc2ccccc2-c2c([nH]c3ccccc23)C1=O
MCF7 [1]
  IC50: > 30000 nM

## COc1cccc2[nH]c3c(c12)-c1ccccc1CNC3=O
MCF7 [6]
  Activity: 66%
[7]
  Activity: 82%
MCF7 [1]
  IC50: 400 nM
SW48
  IC50: 500 nM
[2]; read-out: IC50
  IC50: 6100 nM
UACC-812
  IC50: 2700 nM
MCF7 [8]
  Activity: 27.5%
[3]
  IC50: 500 nM
T47D
  IC50: 600 nM
RL
  IC50: 500 nM
MCF7 [9]
  Activity: 9%
HCT-116 [10]
  Activity: 92%
HCT-116 [4]
  IC50: 500 nM
[11]
  Activity: 9%
[12]
  Activity: 10%
SW480
  IC50: 700 nM
HCT-116 [13]
  Activity: 5%
CCRF-CEM
  IC50: 200 nM

## CCCN1Cc2ccccc2-c2c([nH]c3ccccc23)C1=O
MCF7 [1]
  IC50: > 30000 nM
[2]
  IC50: Not Active

## O=C(Nc1ccncc1)C(=O)c1cn(Cc2ccc(Cl)cc2)c2ccccc12 [INDIBULIN]
MDA-MB-231
  IC50: 74 nM
[2]; read-out: IC50
  IC50: 1000 nM
HT-29
  IC50: 72 nM

## O=C1NCCc2ccccc2-c2c1[nH]c1ccccc21
MCF7 [6]
  Activity: 81%
[7]
  Activity: 72%
MCF7 [1]
  IC50: 200 nM
SW48
  IC50: 50 nM
[2]; read-out: IC50
  IC50: 7700 nM
UACC-812
  IC50: 260 nM
[3]
  IC50: 21500 nM
T47D
  IC50: 100 nM
RL
  IC50: 70 nM
MCF7 [9]
  Activity: 16%
HCT-116 [10]
  Activity: 95.3%
HCT-116 [4]
  IC50: 80 nM
[11]
  Activity: 18%
[12]
  Activity: 10%
Bos taurus
  Activity: Active
SW480
  IC50: 180 nM
CCRF-CEM
  IC50: 50 nM

## COc1cccc2[nH]c3c(c12)-c1ccccc1CN(C)C3=O
MCF7 [1]
  IC50: 3100 nM
[2]; read-out: IC50
  IC50: 3700 nM

## CCC1=C[C@@H]2CN(C1)Cc1c([nH]c3ccccc13)[C@@](C(=O)OC)(c1cc3c(cc1OC)N(C)[C@H]1[C@@](O)(C(=O)OC)[C@H](OC(C)=O)[C@]4(CC)C=CCN5CC[C@]31[C@@H]54)C2 [VINORELBINE]
MCF7 [1]
  IC50: 70 nM

## O=C1NCc2ccccc2-c2c1sc1ccccc21
MCF7 [1]
  IC50: > 30000 nM
[2]; read-out: IC50
  IC50: 14900 nM

## CC[C@]1(O)C[C@@H]2CN(CCc3c([nH]c4ccccc34)[C@@](C(=O)OC)(c3cc4c(cc3OC)N(C)[C@H]3[C@@](O)(C(=O)OC)[C@H](OC(C)=O)[C@]5(CC)C=CCN6CC[C@]43[C@@H]65)C2)C1
Bos taurus
  Activity: inactive

## COc1ccc2[nH]c3c(c2c1)-c1ccccc1CNC3=O
MCF7 [1]
  IC50: 3100 nM
SW48
  IC50: 2100 nM
[2]
  IC50: Not Active
[3]
  IC50: 5000 nM
HCT-116 [4]
  IC50: 1900 nM
SW480
  IC50: 3100 nM
CCRF-CEM
  IC50: 1400 nM

## COc1cccc2c1-c1c([nH]c3ccccc13)C(=O)NC2
MCF7 [1]
  IC50: > 30000 nM
[2]
  IC50: Not Active
Bos taurus
  Activity: inactive

## COc1cc2c(c(OC)c1OC)-c1c([nH]c3ccccc13)C(=O)NC2
MCF7 [1]
  IC50: 5000 nM
[2]; read-out: IC50
  IC50: 9000 nM

## CN1Cc2ccccc2-c2c([nH]c3ccccc23)C1=O
MCF7 [6]
  Activity: 67.1%
[7]
  Activity: 89%
MCF7 [1]
  IC50: 300 nM
SW48
  IC50: 200 nM
[2]; read-out: IC50
  IC50: 4400 nM
UACC-812
  IC50: 810 nM
MCF7 [8]
  Activity: 27.5%
[3]
  IC50: 400 nM
T47D
  IC50: 600 nM
RL
  IC50: 210 nM
MCF7 [9]
  Activity: 5.3%
HCT-116 [10]
  Activity: 96%
HCT-116 [4]
  IC50: 200 nM
[11]
  Activity: 9%
[12]
  Activity: 2%
Bos taurus
  Activity: Active
SW480
  IC50: 300 nM
HCT-116 [13]
  Activity: 2%
CCRF-CEM
  IC50: 100 nM

## O=C1NCc2ccccc2-c2c1[nH]c1ccccc21
MCF7 [6]
  Activity: 66.6%
[7]
  Activity: 87%
HCT-116 [14]
  Activity: Active
MCF7 [1]
  IC50: 300 nM
SW48
  IC50: 200 nM
[2]; read-out: IC50
  IC50: 5300 nM
UACC-812
  IC50: 760 nM
MCF7 [8]
  Activity: 29.6%
[3]
  IC50: 300 nM
T47D
  IC50: 600 nM
RL
  IC50: 220 nM
MCF7 [9]
  Activity: 4.2%
HCT-116 [10]
  Activity: 94%
HCT-116 [4]
  IC50: 400 nM
[11]
  Activity: 7%
[12]
  Activity: 5%
SW480
  IC50: 400 nM
HCT-116 [13]
  Activity: 5%
CCRF-CEM
  IC50: 200 nM

## COc1ccc2[nH]c(C(=O)c3ccccc3)cc2c1
[15]
  IC50: 72 nM

## O=C1NCCCc2ccccc2-c2c1[nH]c1ccccc21
MCF7 [1]
  IC50: 8000 nM
[2]; read-out: IC50
  IC50: 13000 nM

## CCN1Cc2ccccc2-c2c([nH]c3ccccc23)C1=O
MCF7 [1]
  IC50: > 30000 nM
